Measured values from ChEMBL document CHEMBL5113380, “Functionalized quinoxalinones as privileged structures with broad-ranging pharmacological activities” (Eur J Med Chem, 2022).
Values after ≈ are worked out from the molar mass of the structure shown.

Assays:
MV4-11 = experiment: Antiproliferative activity against human MV4-11 cells; type: functional, cell-based
[1] = molecular target: Bromodomain-containing protein 4 (Homo sapiens, UniProt O60885); experiment: Inhibition of BRD4 (unknown origin) using histone-H4 as substrate incubated for 15 mins and measured after 1 hr by AlphaScreen assay
[2] = Drug metabolism in human liver microsomes; type: ADME, Microsome; settings: read-out: Drug metabolism
Homo sapiens [3] = organism: Homo sapiens; experiment: Binding affinity to estrogen receptor (unknown origin) relative to control
[4] = Aqueous solubility of the compound at pH 7.4; type: physicochemical; settings: buffer
[5] = Metabolic stability in rat liver microsomes assessed as half-life; type: ADME, Microsome
[6] = Binding affinity to estrogen receptor (unknown origin); parameters: species or system Homo sapiens
Homo sapiens [7] = organism: Homo sapiens; experiment: Binding affinity to Creatine kinase (CK) (unknown origin) relative to control
[8] = Binding affinity to Creatine kinase (CK) (unknown origin); parameters: species or system Homo sapiens
NCI-H460 [9] = experiment: Antiproliferative activity against human NCI-H460 cells after 72 hrs by MTT assay; type: functional, cell-based; settings: NCI-H460, 72 h
HCT-116 [10] = experiment: Antiproliferative activity against human HCT-116 cells after 72 hrs by MTT assay; type: functional, cell-based; settings: HCT-116, 72 h
B16-F10 = experiment: Antiproliferative activity against mouse B16-F10 cells after 72 hrs by MTT assay; type: functional, cell-based; settings: B16-F10, 72 h
L02 = experiment: Antiproliferative activity against human HL7702 cells after 72 hrs by MTT assay; type: functional, cell-based; settings: L02, 72 h
HeLa 229 = experiment: Antiproliferative activity against human HeLa 229 cells after 72 hrs by MTT assay; type: functional, cell-based; settings: HeLa 229, 72 h
[11] = molecular target: Fibroblast growth factor receptor 3 (Homo sapiens, UniProt P22607); experiment: Inhibition of FGFR3 (unknown origin)
Chain of Fibroblast growth factor receptor 3 (P22607 whole entry): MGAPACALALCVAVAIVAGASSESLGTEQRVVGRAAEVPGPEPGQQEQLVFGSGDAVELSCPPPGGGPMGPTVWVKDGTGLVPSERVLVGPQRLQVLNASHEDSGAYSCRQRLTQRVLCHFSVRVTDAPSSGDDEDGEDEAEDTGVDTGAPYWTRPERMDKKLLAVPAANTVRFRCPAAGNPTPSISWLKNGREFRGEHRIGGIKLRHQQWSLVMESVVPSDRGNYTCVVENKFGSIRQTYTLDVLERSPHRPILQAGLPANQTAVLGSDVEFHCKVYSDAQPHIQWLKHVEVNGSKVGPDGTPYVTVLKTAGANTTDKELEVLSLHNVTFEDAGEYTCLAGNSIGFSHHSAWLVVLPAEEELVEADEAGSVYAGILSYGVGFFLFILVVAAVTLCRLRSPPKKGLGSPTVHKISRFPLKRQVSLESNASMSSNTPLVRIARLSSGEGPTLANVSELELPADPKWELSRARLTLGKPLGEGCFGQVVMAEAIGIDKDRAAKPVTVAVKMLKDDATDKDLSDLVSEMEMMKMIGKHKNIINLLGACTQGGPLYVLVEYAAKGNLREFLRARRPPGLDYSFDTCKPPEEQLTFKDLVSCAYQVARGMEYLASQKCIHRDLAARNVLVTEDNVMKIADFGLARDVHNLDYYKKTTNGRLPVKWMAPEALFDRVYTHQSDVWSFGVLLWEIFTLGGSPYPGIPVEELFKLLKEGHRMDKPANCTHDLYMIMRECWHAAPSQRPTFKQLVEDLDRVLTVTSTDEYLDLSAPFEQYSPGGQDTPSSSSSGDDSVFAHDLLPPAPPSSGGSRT

[12] = molecular target: T1, Fibroblast growth factor receptor 1 (Homo sapiens, UniProt P11362); experiment: Inhibition of FGFR1 (unknown origin) using ULight-JAK-1 (Tyr1023) peptide as substrate incubated for 90 mins and measured after 1 hr by LANCE Ultra TR-FRET assay
Target sequence in this assay (P11362 whole entry): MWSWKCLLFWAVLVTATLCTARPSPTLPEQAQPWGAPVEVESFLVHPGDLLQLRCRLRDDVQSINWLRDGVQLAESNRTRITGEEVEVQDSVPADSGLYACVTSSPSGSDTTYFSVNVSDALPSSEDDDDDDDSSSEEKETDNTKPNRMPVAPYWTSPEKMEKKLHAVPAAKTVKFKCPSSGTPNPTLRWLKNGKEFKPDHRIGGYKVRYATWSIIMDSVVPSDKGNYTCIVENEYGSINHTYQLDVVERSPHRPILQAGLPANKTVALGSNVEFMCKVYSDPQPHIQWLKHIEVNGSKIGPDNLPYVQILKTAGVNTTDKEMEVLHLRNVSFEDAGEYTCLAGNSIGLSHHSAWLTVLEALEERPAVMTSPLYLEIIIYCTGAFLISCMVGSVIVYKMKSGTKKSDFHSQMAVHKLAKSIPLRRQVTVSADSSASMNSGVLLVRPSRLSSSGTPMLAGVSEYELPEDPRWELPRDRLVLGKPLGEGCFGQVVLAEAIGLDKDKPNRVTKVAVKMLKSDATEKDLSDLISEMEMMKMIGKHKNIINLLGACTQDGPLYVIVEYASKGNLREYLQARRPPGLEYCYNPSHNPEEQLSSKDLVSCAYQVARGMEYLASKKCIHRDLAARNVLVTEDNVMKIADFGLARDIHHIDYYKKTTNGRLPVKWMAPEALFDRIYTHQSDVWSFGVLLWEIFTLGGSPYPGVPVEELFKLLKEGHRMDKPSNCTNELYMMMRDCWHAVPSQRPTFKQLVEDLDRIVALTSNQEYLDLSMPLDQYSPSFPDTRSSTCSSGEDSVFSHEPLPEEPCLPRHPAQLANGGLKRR

[13] = molecular target: Human immunodeficiency virus type 1 reverse transcriptase (Human immunodeficiency virus 1, UniProt Q72547); experiment: (§1) Inhibition of HIV1 reverse transcriptase
[14] = molecular target: Human immunodeficiency virus type 1 reverse transcriptase (Human immunodeficiency virus 1) (UniProt Q72547); experiment: as §1
[15] = molecular target: T2, Glutamate receptor ionotropic AMPA (Homo sapiens, UniProt P42261+P42262+P42263+P48058); experiment: Agonist activity at AMPA receptor (unknown origin); type: protein-complex assay
HeLa S3 = experiment: Cytotoxicity against human HeLa S3 cells; type: functional, cell-based
HCT-116 [16] = experiment: Antiproliferative activity against human HCT-116 cells after 48 hrs by MTT assay; type: functional, cell-based; settings: HCT-116, 48 h
CT26 = experiment: Antitumor activity against mouse CT26 cells xenografted in C57BL/6 mouse assessed as tumor suppression rate at 20 mg/kg, ip administered for 14 days; type: functional; settings: time 14 day
[17] = molecular target: T1, Fibroblast growth factor receptor 1; experiment: Inhibition of FGFR1 (unknown origin) using ULight-JAK-1 (Tyr1023) peptide as substrate incubated for 90 mins at 10 uM and measured after 1 hr by LANCE Ultra TR-FRET assay relative to control
Target sequence in this assay (P11362 22-822 limits assumed): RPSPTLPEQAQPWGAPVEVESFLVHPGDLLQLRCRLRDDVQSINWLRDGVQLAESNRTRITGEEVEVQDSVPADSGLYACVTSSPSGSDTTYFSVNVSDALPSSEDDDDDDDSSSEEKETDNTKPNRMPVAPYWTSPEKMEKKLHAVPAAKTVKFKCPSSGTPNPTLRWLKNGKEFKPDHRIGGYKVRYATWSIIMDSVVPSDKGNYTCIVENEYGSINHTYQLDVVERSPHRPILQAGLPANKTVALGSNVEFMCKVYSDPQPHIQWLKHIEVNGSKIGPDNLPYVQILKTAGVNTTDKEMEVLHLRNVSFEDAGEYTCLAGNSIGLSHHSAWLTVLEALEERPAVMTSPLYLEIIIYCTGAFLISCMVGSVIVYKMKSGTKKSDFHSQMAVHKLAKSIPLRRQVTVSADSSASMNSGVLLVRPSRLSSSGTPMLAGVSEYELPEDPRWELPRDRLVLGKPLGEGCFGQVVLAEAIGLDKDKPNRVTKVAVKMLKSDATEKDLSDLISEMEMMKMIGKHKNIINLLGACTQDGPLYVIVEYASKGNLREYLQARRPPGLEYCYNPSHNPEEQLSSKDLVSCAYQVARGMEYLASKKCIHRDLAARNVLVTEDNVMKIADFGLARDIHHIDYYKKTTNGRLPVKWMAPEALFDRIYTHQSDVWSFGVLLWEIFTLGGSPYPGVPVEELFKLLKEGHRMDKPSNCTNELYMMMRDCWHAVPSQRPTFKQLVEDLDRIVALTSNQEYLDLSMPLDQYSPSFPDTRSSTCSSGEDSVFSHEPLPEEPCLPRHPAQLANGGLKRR

[18] = molecular target: Kappa-type opioid receptor (Homo sapiens, UniProt P41145); experiment: Antagonist at KOR expressed in human U2OS cells measured by High content imaging based beta-arrestin translocation assay; type: cell-based
Chain of Kappa-type opioid receptor (P41145 whole entry): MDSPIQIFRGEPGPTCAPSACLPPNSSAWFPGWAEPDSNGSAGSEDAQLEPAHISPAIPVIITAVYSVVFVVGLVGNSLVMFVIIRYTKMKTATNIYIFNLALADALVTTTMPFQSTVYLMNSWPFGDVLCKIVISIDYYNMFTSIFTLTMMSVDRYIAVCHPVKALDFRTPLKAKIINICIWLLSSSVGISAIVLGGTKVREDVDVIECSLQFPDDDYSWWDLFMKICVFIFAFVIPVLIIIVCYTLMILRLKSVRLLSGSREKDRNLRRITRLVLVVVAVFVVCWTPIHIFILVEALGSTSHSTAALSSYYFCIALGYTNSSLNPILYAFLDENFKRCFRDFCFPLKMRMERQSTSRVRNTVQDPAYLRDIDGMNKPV

Glutamate receptor 2 = Glutamate receptor 2 (Homo sapiens, UniProt P42262); experiment: Binding affinity to GluA2 receptor (unknown origin)
[19] = molecular target: T2, Glutamate receptor ionotropic AMPA; experiment: Displacement of [3H]kainic acid from AMPA receptor (unknown origin); type: protein-complex assay
[20] = molecular target: T2, Glutamate receptor ionotropic AMPA; experiment: Displacement of [3H]AMPA from AMPA receptor (unknown origin); type: protein-complex assay
[21] = molecular target: T2, Glutamate receptor ionotropic AMPA; experiment: Displacement of […] from AMPA receptor (unknown origin); type: protein-complex assay
[22] = molecular target: T3, Glutamate receptor ionotropic, kainate 1 (Homo sapiens, UniProt P39086); experiment: Binding affinity to GluK1 receptor (unknown origin)
T3 sequence (P39086 whole entry): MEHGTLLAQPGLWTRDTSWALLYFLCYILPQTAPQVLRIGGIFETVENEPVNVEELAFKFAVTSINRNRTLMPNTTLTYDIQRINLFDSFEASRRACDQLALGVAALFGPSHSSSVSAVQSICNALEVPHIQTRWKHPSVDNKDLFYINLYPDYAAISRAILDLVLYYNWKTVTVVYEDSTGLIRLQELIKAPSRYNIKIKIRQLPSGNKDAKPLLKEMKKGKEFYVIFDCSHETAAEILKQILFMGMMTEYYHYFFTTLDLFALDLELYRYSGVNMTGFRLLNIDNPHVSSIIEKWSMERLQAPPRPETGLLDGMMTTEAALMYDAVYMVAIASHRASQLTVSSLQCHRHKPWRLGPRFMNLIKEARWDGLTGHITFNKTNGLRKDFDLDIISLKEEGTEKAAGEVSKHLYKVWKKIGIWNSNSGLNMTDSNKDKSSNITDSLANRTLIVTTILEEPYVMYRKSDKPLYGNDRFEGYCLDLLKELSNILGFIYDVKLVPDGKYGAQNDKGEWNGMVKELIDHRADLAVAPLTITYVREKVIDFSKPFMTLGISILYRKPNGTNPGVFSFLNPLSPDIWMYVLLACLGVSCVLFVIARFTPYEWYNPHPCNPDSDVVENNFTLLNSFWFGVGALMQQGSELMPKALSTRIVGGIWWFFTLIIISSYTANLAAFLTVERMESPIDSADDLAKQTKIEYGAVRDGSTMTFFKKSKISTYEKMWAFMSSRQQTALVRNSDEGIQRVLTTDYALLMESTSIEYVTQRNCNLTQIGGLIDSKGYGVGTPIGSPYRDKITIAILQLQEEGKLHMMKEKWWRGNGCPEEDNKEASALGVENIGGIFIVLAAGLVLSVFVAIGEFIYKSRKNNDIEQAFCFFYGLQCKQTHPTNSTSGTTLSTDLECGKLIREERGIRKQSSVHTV

[23] = molecular target: Glutamate receptor ionotropic, kainate 2 (Homo sapiens, UniProt Q13002); experiment: Binding affinity to GluK2 receptor (unknown origin)
Chain of Glutamate receptor ionotropic, kainate 2 (Q13002 whole entry, the tested form may be a part): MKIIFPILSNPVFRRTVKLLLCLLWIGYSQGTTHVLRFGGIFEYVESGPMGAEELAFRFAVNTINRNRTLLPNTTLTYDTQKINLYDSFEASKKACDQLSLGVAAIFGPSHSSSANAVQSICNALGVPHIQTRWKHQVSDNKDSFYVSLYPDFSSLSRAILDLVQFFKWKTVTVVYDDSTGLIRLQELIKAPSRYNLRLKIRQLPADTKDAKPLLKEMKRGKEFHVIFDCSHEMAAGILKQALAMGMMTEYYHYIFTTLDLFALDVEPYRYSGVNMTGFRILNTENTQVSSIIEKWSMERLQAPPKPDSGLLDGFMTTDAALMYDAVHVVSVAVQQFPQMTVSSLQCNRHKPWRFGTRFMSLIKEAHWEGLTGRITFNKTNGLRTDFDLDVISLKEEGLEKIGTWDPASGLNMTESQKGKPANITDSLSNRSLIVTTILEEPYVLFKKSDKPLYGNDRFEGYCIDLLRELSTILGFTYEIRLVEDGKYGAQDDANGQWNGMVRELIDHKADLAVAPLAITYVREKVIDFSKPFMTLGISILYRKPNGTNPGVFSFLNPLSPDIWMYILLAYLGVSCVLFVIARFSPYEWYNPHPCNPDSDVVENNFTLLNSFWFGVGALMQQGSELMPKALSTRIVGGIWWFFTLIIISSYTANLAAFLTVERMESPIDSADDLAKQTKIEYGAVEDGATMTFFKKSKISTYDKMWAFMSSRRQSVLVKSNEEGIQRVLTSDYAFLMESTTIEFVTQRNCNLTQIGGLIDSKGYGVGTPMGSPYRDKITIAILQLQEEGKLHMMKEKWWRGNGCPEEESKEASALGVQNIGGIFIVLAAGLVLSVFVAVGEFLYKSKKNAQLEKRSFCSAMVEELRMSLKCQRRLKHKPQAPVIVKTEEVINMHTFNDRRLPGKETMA

[24] = molecular target: T3, Glutamate receptor ionotropic, kainate 1; experiment: Binding affinity to GluK1 ligand binding domain (unknown origin)
[25] = molecular target: Hepatocyte growth factor receptor (Homo sapiens, UniProt P08581); experiment: Inhibition of c-MET (unknown origin)
A549 = experiment: Antiproliferative activity against human A549 cells; type: functional, cell-based
NCI-H460 [26] = experiment: Antiproliferative activity against human NCI-H460 cells; type: functional, cell-based
HT-29 = experiment: Antiproliferative activity against human HT-29 cells; type: functional, cell-based
Klebsiella pneumoniae = experiment: Antibacterial activity against Klebsiella pneumoniae; type: functional
[27] = system: Geobacillus stearothermophilus; experiment: Antibacterial activity against Bacillus stearothermophilus; type: functional
Bacillus subtilis = experiment: Antibacterial activity against Bacillus subtilis; type: functional
Shigella dysenteriae = experiment: Antibacterial activity against Shigella dysenteriae; type: functional
Bacillus cereus = experiment: Antibacterial activity against Bacillus cereus; type: functional
Bacillus anthracis = experiment: Antibacterial activity against Bacillus anthracis; type: functional
Enterococcus faecalis = experiment: Antibacterial activity against Enterococcus faecalis; type: functional
Escherichia coli = experiment: Antibacterial activity against Escherichia coli; type: functional
Pseudomonas aeruginosa = experiment: Antibacterial activity against Pseudomonas aeruginosa; type: functional
[28] = Aqueous solubility of the compound; type: physicochemical; settings: buffer
[29] = molecular target: Glutamate [NMDA] receptor; experiment: Displacement of [3H]NMDA from NMDA receptor (unknown origin); type: protein-complex assay, Homo sapiens
[30] = molecular target: Glutamate [NMDA] receptor; experiment: Displacement of [3H]L-689560 from NMDA receptor (unknown origin); type: protein-complex assay, Homo sapiens
Trypanosoma brucei = experiment: Antitrypanosomal activity against Trypanosoma brucei; type: functional, organism-based
[31] = Cytotoxicity against rat myoblast L6 cells; type: toxicity, cell-based
[32] = Ratio IC50 for cytotoxicity against rat myoblast L6 cells over IC50 for antitrypanosomal activity against Trypanosoma brucei; type: toxicity, cell-based; settings: read-out: Ratio IC50
[33] = molecular target: T2, Glutamate receptor ionotropic AMPA; experiment: Antagonist activity at AMPA receptor (unknown origin); type: protein-complex assay
Rattus norvegicus [34] = experiment: Antiobesity activity in fasted Sprague-Dawley rat assessed as inhibition of food intake for more than 2 hrs when administered orally; type: functional; settings: route po
Rattus norvegicus [35] = experiment: Antiobesity activity in fasted Sprague-Dawley rat assessed as inhibition of food intake for more than 2 hrs when administered intraperitoneally; type: functional; settings: route ip
Rattus norvegicus [36] = experiment: Antiinflammatory activity in rat model of hind paw edema assessed as paw thickness at 0.9 mg per 100 g of body weight measured after 4 hrs; type: functional
[37] = Displacement of [3H]AMPA from NMDA receptor (unknown origin); type: protein-complex assay, Homo sapiens
[38] = molecular target: Glutamate [NMDA] receptor; experiment: Displacement of [3H]DCKA from NMDA receptor (unknown origin); type: protein-complex assay, Homo sapiens
[39] = molecular target: Glutamate [NMDA] receptor; experiment: Displacement of [3H]CGP-39653 from NMDA receptor (unknown origin); type: protein-complex assay, Homo sapiens
[40] = molecular target: Glutamate [NMDA] receptor; experiment: Displacement of [3H]kainic acid from NMDA receptor (unknown origin); type: protein-complex assay, Homo sapiens

## CCC1C(=O)Nc2ccc(-c3c(C)noc3C)cc2N1Cc1ccccc1 (stereo not given)
MV4-11
  IC50: 253 nM
[1]
  IC50: 73 nM

## O=c1c(-c2cccc([N+](=O)[O-])c2)nc2ccccc2n1Cc1ccccc1
[2]
  metabolised: < 40%

## CC[C@H]1C(=O)N(C)c2ccc(F)cc2N1C(=O)c1ccc(O)cc1O
Homo sapiens [3]
  Activity: 96%
[4]
  solubility: > 100 µg/mL
[5]
  half-life: > 30 min
[6]
  IC50: 20 nM
Homo sapiens [7]
  Activity: 36%
[8]
  EC50: 169 nM

## O=c1c(/C=C/c2ccccc2Cl)nc2ccccc2n1Cc1ccccc1
NCI-H460 [9]
  IC50: 18100 nM
HCT-116 [10]
  IC50: > 50000 nM
B16-F10
  IC50: 3390 nM
L02
  IC50: > 100000 nM
HeLa 229
  IC50: > 50000 nM
[11]
  IC50: 94500 nM
[12]
  IC50: 25600 nM

## CCOC(=O)N1c2ccccc2NC(=O)[C@]1(C#CC1CC1)C(F)(F)F
[13]
  IC50: 45 nM
[14]
  IC90: 4.8 nM

## N[C@@H](Cn1c(=O)c(=O)[nH]c2ccccc21)C(=O)O
[15]
  EC50: 3000 nM

## N#Cc1ccc2c(c1)N1CCCCC1C(=O)N2 (stereo not given)
HeLa S3
  IC50: 7600 nM

## Cc1noc(C)c1-c1ccc2c(c1)C(c1ccccc1)N(Cc1cn(CCOCCOCCOCCn3cc(CC4C(=O)N(C)c5ccc(-c6c(C)noc6C)cc5N4c4ccccc4)nn3)nn1)C(=O)N2C (stereo not given)
[1]
  IC50: 7.7 nM
HCT-116 [16]
  IC50: 162 nM
CT26
  Activity: 56.1%

## O=c1[nH]c2ccccc2nc1/C=C/c1ccccn1
NCI-H460 [9]
  IC50: 460 nM
HCT-116 [10]
  IC50: 270 nM
B16-F10
  IC50: 58 nM
L02
  IC50: > 100000 nM
[17]
  inhibition: 79.3%
HeLa 229
  IC50: 2890 nM
[12]
  IC50: 15300 nM

## COc1ccc(N2CCN(CCCNC(=O)Cn3c(=O)c4cccn4c4cccnc43)CC2)cc1
[18]
  IC50: 173 nM

## N[C@@H](CCc1ccc2[nH]c(=O)c(=O)[nH]c2c1)C(=O)O
Glutamate receptor 2
  Ki: 21300 nM
[19]
  IC50: 126000 nM
[20]
  IC50: 26000 nM
[21]
  Ki: 78000 nM
[22]
  Ki: 16100 nM
[23]
  Ki: 9520 nM
[24]
  Ki: 37100 nM

## O=C(Nc1ccc(Oc2ccnc(NC(=O)C3CC3)c2)cc1)c1nc2ccccc2n(-c2ccc(F)cc2)c1=O
[25]
  IC50: 1.91 nM
A549
  IC50: 1570 nM
NCI-H460 [26]
  IC50: 940 nM
HT-29
  IC50: 650 nM

## O=C1CC(c2ccccc2)=NN1c1nc2ccccc2[nH]c1=O
Klebsiella pneumoniae
  MIC: 7.8 µg/mL (≈ 25.6 µM)
[27]
  MIC: 15.6 µg/mL (≈ 51.3 µM)
Bacillus subtilis
  MIC: 7.8 µg/mL (≈ 25.6 µM)
Shigella dysenteriae
  MIC: 62.5 µg/mL (≈ 205 µM)
Bacillus cereus
  MIC: 7.8 µg/mL (≈ 25.6 µM)
Bacillus anthracis
  MIC: 7.8 µg/mL (≈ 25.6 µM)
Enterococcus faecalis
  MIC: 7.8 µg/mL (≈ 25.6 µM)
Escherichia coli
  MIC: 15.6 µg/mL (≈ 51.3 µM)
Pseudomonas aeruginosa
  MIC: 31.3 µg/mL (≈ 103 µM)

## CCC(c1c(Cl)c(Cl)cc2nc(O)c(O)nc12)n1cnnc1 (stereo not given)
[28]
  solubility: > 5000 µg/mL
[29]
  IC50: 90 nM
[30]
  IC50: 2.6 nM

## O=C1Nc2cc([N+](=O)[O-])ccc2N2CCCC12 (stereo not given)
Trypanosoma brucei
  IC50: 2700 nM
[31]
  IC50: 46700 nM
[32]
  selectivity ratio: 17.4

## Cc1cc2[nH]c(=O)c(=O)n(C[C@@H](N)C(=O)O)c2cc1C
[33]
  EC50: 300000 nM

## O=C1Nc2cc(Cl)c(Cl)cc2N2CCNC[C@H]12
Rattus norvegicus [34]
  ED50: 10 mg/kg
Rattus norvegicus [35]
  ED50: 2 mg/kg

## O=c1[nH]c2ccccc2nc1Cc1nnc(S)n1-c1ccccc1
Rattus norvegicus [36]
  Activity: 0.47 mm

## O=C(CC1CCc2cc(Br)cc3[nH]c(=O)c(=O)n1c23)Nc1ccccc1 (stereo not given)
[37]
  IC50: 4600 nM
[38]
  Ki: 2.6 nM
[39]
  IC50: > 25000 nM
[40]
  IC50: > 25000 nM
